Source: the NIST ThermoML archive (doi:10.1016/j.jct.2015.12.021)

Details: Liquid

CCCCCCCCCCCC [dodecane]
viscosity [mPa·s]
Details | 293.15 K | 313.15 K | 333.15 K | 353.15 K | 373.15 K
100 kPa, Vibrating wire viscometry | 1.491 | 1.064 | 0.8013 | 0.6281 | 0.5055
1000 kPa, Vibrating wire viscometry | 1.507 | 1.074 | 0.8127 | 0.6372 | 0.5149
5000 kPa, Falling or rolling sphere viscometry | – | 1.135 | 0.8518 | 0.6657 | –
5000 kPa, Vibrating wire viscometry | 1.586 | 1.124 | 0.855 | 0.6713 | 0.5392
10000 kPa, Falling or rolling sphere viscometry | – | 1.218 | 0.903 | 0.7047 | –
10000 kPa, Vibrating wire viscometry | 1.672 | 1.201 | 0.8975 | 0.7053 | 0.5743
20000 kPa, Falling or rolling sphere viscometry | – | – | 1.002 | 0.7791 | –
20000 kPa, Vibrating wire viscometry | 1.877 | 1.324 | 1.001 | 0.7819 | 0.6286
30000 kPa, Falling or rolling sphere viscometry | – | – | 1.112 | 0.8651 | –
30000 kPa, Vibrating wire viscometry | 2.084 | 1.476 | 1.095 | 0.8694 | 0.7003
40000 kPa, Falling or rolling sphere viscometry | – | – | 1.223 | 0.9597 | –
40000 kPa, Vibrating wire viscometry | 2.31 | 1.625 | 1.216 | 0.9528 | 0.7715
50000 kPa, Vibrating wire viscometry | 2.56 | 1.778 | 1.321 | 1.037 | 0.8425
60000 kPa, Falling or rolling sphere viscometry | – | – | – | 1.121 | –
60000 kPa, Vibrating wire viscometry | 2.822 | 1.946 | 1.44 | 1.123 | 0.91
70000 kPa, Vibrating wire viscometry | 3.112 | 2.129 | 1.576 | 1.213 | 0.9844
80000 kPa, Vibrating wire viscometry | 3.428 | 2.32 | 1.707 | 1.312 | 1.066
100000 kPa, Vibrating wire viscometry | 4.117 | 2.758 | 1.994 | 1.532 | 1.22
120000 kPa, Vibrating wire viscometry | 4.953 | 3.231 | 2.302 | 1.757 | 1.402
140000 kPa, Vibrating wire viscometry | 5.816 | 3.755 | 2.657 | 2.023 | 1.588
